In brackets after ≈: the same amount, converted by molar mass. Activity calls are given as the source filed them. The rule behind the calls is not given here.
What was measured:
KB = test: Antiproliferative activity against human KB cells assessed as reduction in cell growth incubated at 37 degC for 3 days by resazurin microplate assay; type: functional, cell-based
MCF7 = test: Antiproliferative activity against human MCF7 cells assessed as reduction in cell growth incubated at 37 degC for 3 days by resazurin microplate assay; type: functional, cell-based
Plasmodium falciparum = test: Antimalarial activity against multidrug-resistant Plasmodium falciparum K1 assessed as reduction in parasite growth incubated for 24 hrs by [3H]hypoxanthine incorporation based microculture radioisotope technique based method; type: functional, organism-based
[1] = system: Mycobacterium tuberculosis; test: Antimycobacterial activity against GFP expressing Mycobacterium tuberculosis H37Ra assessed as microbial growth inhibition incubated at 37 degC for 7 days by fluorescence based assay; type: functional
Vero = test: Cytotoxicity against African green monkey Vero cells assessed as reduction in cell growth incubated at 37 degC for 4 days by fluorescence based assay; conditions: Chlorocebus sabaeus, 96 h
[2] = Homo sapiens, KB, 72 h, read-out: IC50
[3] = Plasmodium falciparum, K1, read-out: IC50
[4] = Homo sapiens, MCF7, 72 h, read-out: IC50

C=C(C)[C@@H]1C[C@@]2(C)C(=CC1=O)CC[C@@H](O)[C@@H]2C
IC50 (KB; [2]): 186 µM
IC50 (MCF7; mcf7): Not Active
IC50 (Plasmodium falciparum; [3]): 39.3 µM
MIC [1]: inactive
IC50 (Vero): 44.5 µM

CO[C@H]1/C=C/O[C@@]2(C)Oc3c(C)c(O)c4c(O)c(c(/C=N/N5CCN(C)CC5)c(O)c4c3C2=O)NC(=O)/C(C)=C\C=C\[C@H](C)[C@H](O)[C@@H](C)[C@@H](O)[C@@H](C)[C@H](OC(C)=O)[C@@H]1C [RIFAMPIN]
MIC ([1]; 168 h): 0.025 µg/mL (≈ 0.0304 µM)

C=C(CO)[C@@]12O[C@@H]1[C@@]1(C)C(=CC2=O)CC[C@@H](O)[C@@H]1C
IC50 (KB; [2]): 31.8 µM
IC50 (MCF7; mcf7): Not Active
IC50 (Plasmodium falciparum; [3]): 5.41 µM
MIC [1]: inactive
IC50 (Vero): 6.05 µM

NNC(=O)c1ccncc1 [ISONIAZID]
MIC ([1]; 168 h): 0.094 µg/mL (≈ 0.685 µM)

CC/C(=C(\c1ccccc1)c1ccc(OCCN(C)C)cc1)c1ccccc1 [TAMOXIFEN]
IC50 (MCF7; [4]): 18.7 µM

C=C(CO)[C@@H]1C[C@@]2(C)C(=CC1=O)CC[C@@H](O)[C@@H]2C
IC50 (KB; kb): Not Active
IC50 (MCF7; mcf7): Not Active
IC50 (Plasmodium falciparum): Not Active
MIC [1]: inactive
IC50 (Vero): 56.2 µM

COc1cccc2c1C(=O)c1c(O)c3c(c(O)c1C2=O)C[C@@](O)(C(=O)CO)C[C@@H]3O[C@H]1C[C@H](N)[C@H](O)[C@H](C)O1 [DOXORUBICIN]
IC50 (KB; [2]): 0.91 µM
IC50 (MCF7; [4]): 11.5 µM

C=C(C)[C@@]12O[C@@H]1[C@@]1(C)C(=CC2=O)CC[C@@H](O)[C@@H]1C
IC50 (KB; [2]): 17.8 µM
IC50 (MCF7; mcf7): Not Active
IC50 (Plasmodium falciparum; [3]): 1.53 µM
MIC [1]: inactive
IC50 (Vero): 4.23 µM

CC[C@@H](CO)NCCN[C@@H](CC)CO [ETHAMBUTOL]
MIC ([1]; 168 h): 0.983 µg/mL (≈ 4.81 µM)

C=C(C)[C@@]12O[C@@H]1[C@@]1(C)C(=C[C@@H]2O)CC[C@@H](O)[C@@H]1C
IC50 (KB; kb): Not Active
IC50 (MCF7; mcf7): Not Active
IC50 (Plasmodium falciparum): Not Active
MIC [1]: inactive
IC50 (Vero): 24.1 µM

CN[C@@H]1[C@H](O[C@H]2[C@H](O[C@H]3[C@H](O)[C@@H](O)[C@H](N=C(N)N)[C@@H](O)[C@@H]3N=C(N)N)O[C@@H](C)[C@]2(O)C=O)O[C@@H](CO)[C@H](O)[C@H]1O [STREPTOMYCIN]
MIC ([1]; 168 h): 0.625 µg/mL (≈ 1.07 µM)

C=C(C)C1=C[C@@]2(C)C(=CC1=O)CC[C@@H](O)[C@@H]2C
IC50 (KB; kb): Not Active
IC50 (MCF7; mcf7): Not Active
IC50 (Plasmodium falciparum; [3]): 15.7 µM
MIC [1]: inactive
IC50 (Vero): 34.6 µM

C=C(C)[C@@]12O[C@@H]1[C@@]1(C)C(=CC2=O)CC[C@@H](OC(=O)Cc2ccc(O)c(Cl)c2)[C@@H]1C
IC50 (KB; [2]): 57 µM
IC50 (MCF7; [4]): 39.6 µM
IC50 (Plasmodium falciparum; [3]): 3.45 µM
MIC ([1]; 168 h): 50 µg/mL (≈ 120 µM)
IC50 (Vero): 21.1 µM

Cc1c2ccncc2c(C)c2c1[nH]c1ccccc12 [ELLIPTECINE]
IC50 (KB; [2]): 1.98 µM
IC50 (Vero): 3.8 µM

CC1COc2c(N3CCN(C)CC3)c(F)cc3c(=O)c(C(=O)O)cn1c23 (stereo unspecified) [OFLOXACIN]
MIC ([1]; 168 h): 0.391 µg/mL (≈ 1.08 µM)

C=C(C)[C@@]12O[C@@H]1[C@@]1(C)C(=CC2=O)CC[C@@H](OC(C)=O)[C@@H]1C
IC50 (KB; [2]): 35.7 µM
IC50 (MCF7; mcf7): Not Active
IC50 (Plasmodium falciparum; [3]): 4.55 µM
MIC [1]: inactive
IC50 (Vero): 7.51 µM

C[C@H]1[C@@H](O)O[C@@H]2O[C@@]3(C)CC[C@H]4[C@H](C)CC[C@@H]1[C@@]24OO3 [ARTENIMOL]
IC50 (Plasmodium falciparum; [3]): 0.00126 µM

Reference: ChEMBL document CHEMBL3580576, “Eremophilane Sesquiterpenes and Diphenyl Thioethers from the Soil Fungus Penicillium copticola PSU-RSPG138” (J Nat Prod, 2015)
